# Earlier results in patent US12219980B2, “Nutritionally enhanced fraction from rice bran and method of lowering insulin resistance using same” (QJV, LLC, priority 2010, dated 2025).
# Legend:
# [1] = animal studies, compared with controls
# [2] = in vivo
# HMG-CoA = target: T1, HMG-CoA (Homo sapiens, UniProt P04035); conditions: micromolar amounts
# T1 sequence (P04035 1-888): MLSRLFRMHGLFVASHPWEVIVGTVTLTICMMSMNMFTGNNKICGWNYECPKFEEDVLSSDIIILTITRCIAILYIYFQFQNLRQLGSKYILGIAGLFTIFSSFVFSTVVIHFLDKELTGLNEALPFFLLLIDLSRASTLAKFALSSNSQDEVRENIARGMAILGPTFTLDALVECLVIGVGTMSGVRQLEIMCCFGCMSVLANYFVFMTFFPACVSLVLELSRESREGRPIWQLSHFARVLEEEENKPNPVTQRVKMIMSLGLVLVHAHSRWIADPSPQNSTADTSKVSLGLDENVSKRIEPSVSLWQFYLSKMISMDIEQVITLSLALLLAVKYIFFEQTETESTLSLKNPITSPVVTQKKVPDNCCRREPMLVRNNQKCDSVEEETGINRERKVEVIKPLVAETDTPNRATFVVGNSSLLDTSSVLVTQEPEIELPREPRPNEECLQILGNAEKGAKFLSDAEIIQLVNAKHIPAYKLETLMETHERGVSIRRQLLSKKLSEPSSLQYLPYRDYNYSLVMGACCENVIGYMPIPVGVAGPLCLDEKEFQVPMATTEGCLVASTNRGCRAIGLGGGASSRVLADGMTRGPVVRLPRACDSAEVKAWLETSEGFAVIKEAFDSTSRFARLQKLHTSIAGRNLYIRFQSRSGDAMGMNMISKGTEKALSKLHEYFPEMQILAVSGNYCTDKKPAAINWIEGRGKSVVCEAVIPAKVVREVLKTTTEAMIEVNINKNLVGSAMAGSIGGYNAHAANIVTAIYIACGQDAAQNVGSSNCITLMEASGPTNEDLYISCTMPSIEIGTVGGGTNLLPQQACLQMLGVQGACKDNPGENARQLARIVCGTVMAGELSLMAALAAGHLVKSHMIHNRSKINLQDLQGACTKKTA
# [3] = in vivo; remark: listed apart in the source
compound,measurement,setting,value
COc1cc(/C=C/C(=O)O)ccc1O [ferulic acid],"activities of hepatic glucose-6-phosphate dehydrogenase, catalase and peroxidase",[1],diminishing
same,levels of glycogen in the liver and skeletal muscle,[1],significantly decreased
gamma-oryzanol,bile acid secretion and fecal excretion of cholesterol,[2],affect bile acid secretion and fecal excretion of cholesterol
tocotrienol,activity of HMG-CoA,HMG-CoA,suppress the activity of HMG-CoA
same,total cholesterol and LDL cholesterol in blood plasma,[3],lower
